Reference: patent US8377913B2, “Vitamin D receptor activators and methods of making” (AbbVie Inc., priority 2007, dated 2013)

Experiments:
[1] = test system: VDR (VDRE-luciferase-reporter construct); test: VDRE Reporter Gene Assay in HEK cells with stable expression of VDR; assay type: cell-based; conditions: Homo sapiens, HEK293, 24 hours
Procedure: Compound activity was also assessed by looking at a Vitamin D Response Element (VDRE) reporter gene assay, Human Embryonic Kidney cells (HEK cells) with a stable expression of VDR were cultured in 96-well plates at ˜4×10^5 cells/mL (100 μL/well) in DMEM medium containing 10% fetal calf serum. Cells were transfected with 0.2 μg per well of a VDRE-luciferase-reporter construct (from Y. Li, University of Chicago) and then treated with test agents at indicated concentrations for 24 hours. The luciferase activity was then measured following the manufacturer's instructions (Promega, Madison, Wis.).

[2] = test system: Human promyelocytic leukemia (HL60) cells; test: HL-60 Differentiation; assay type: cell-based; conditions: HL-60, 96 h, four days incubation, NBT, absorbance 570 nm
Procedure: Human promyelocytic leukemia (HL60) cells were obtained from the American Type Culture Collection (ATCC Cat. # CCL-240, Manassas, Va.). Cells were maintained in RPMI 1640 medium (commercially available from Invitrogen, Carlsbad, Calif.) containing 10% fetal bovine serum (commercially available from Invitrogen, Carlsbad, Calif.) at 37° C. with 5% CO2. Cells were passaged weekly and were not allowed to become >90% confluent. For the assay, cells were plated at 5×10^5 cells per well in 200 uL media. Test compounds were diluted in media in concentrations between 10^−6-10^−10 M and then added to the appropriate wells. Cells were then incubated for four days at 37° C. in 5% CO2 atmosphere. After incubation, media was aspirated from each well and 75 uL of NBT solution (nitroblue tetrazolinium: 200 ng/mL PMA (phorbol 12-myrystate 13-acetate) and 2 mg/ml NBT (nitroblue tetrazolium) in distilled H2O) was added to each well followed by further incubation for 2 hours at 37° C. Following incubation, 150 uL lysis buffer (225 mL dimethylformamide, 67.5 g SDS). PMA stock solution (2 mg/ml in ethanol) was added to each well and the plate was allowed to sit at room temperature for 4 hours. HL-60 cell differentiation was assayed, Effect of each compound on cell growth was examined as a function of time; absorbance in each well was measured at 570 nm.

[3] = test system: PAI-1 mRNA in human coronary artery smooth muscle cells (CASMC); test: PAI-1 mRNA in CASMC; assay type: cell-based; conditions: Homo sapiens
Procedure: (§1) Primary culture of human coronary artery smooth muscle cells (CASMC) (commercially available from Cambrex, Walkersville, Md.) were grown in smooth muscle growth medium SmGM-2 (commercially available from Lonza Bioscience) containing 5.5 mM glucose, 5% FBS, 50 μg/ml gentamicin, 50 ng/ml amphotericin-B, 5 μg/ml insulin, 2 ng/ml human recombinant fibroblast growth factor (hFGF), and 0.5 ng/ml human recombinant epidermal growth factor (hEGF) at 37° C. in a humidified 5% CO2-95% air atmosphere. Cells were grown to >80% confluence and used within five passages.
(§2) Real-time reverse transcription-PCR was performed with a MyiQ Real-Time PCR Detection System (BioRad, Hercules, Calif.). Each sample has a final volume of 25 μl containing 100 ng of cDNA, […] each of the forward and reverse PCR primers and […] of the TaqMan™ probe for the gene of interest (Applied Biosystems, Foster City, Calif.). Temperature conditions consisted of a step of 5 minutes at 95° C., followed by 40 cycles of 60° C. for 1 minute and 95° C. for 15 seconds. Data was collected during each extension phase of the PCR reaction and analyzed with the software package (BioRad, Hercules, Calif.). Threshold cycles were determined for each gene. […]

[4] = test system: Thrombomodulin mRNA in human coronary artery smooth muscle cells (CASMC); test: Thrombomodulin mRNA in CASMC; assay type: cell-based; conditions: Homo sapiens
Procedure: as §1, §2

[5] = test system: 5/6 nephrectomized rats; test: Aortic Calcification in Uremic Rats; assay type: in vivo, rat; conditions: 5/6 NX rats, at <100 μg/kg, i.p. 3 times per week for 41 Days
Procedure: 5/6 nephrectomized rats: Male Sprague-Dawley, 5/6 NX rats (˜200 g) were obtained from Charles River. The nephrectomy was performed using a standard two-step surgical ablation procedure. Beginning approximately 2 weeks post-nephrectomy, rats were maintained on a hyperphosphatemia-inducing diet (0.9% phosphorus and 0.6% calcium) for the duration of the study to induce secondary hyperparathyroidism (SHPT). After four weeks on the special diet, rats received vehicle (5% ethanol/95% propylene glycol; 0.4 mL/kg; i.p.) or test agent 3 times per week for 41 Days. On Days 0, 13, and 41 blood was collected (24 hours post-dose).
To minimize bias induced by variance in the disease state, 5/6 NX rats were assessed after 4 weeks of high phosphorus diet (prior to treatment) and the following inclusion/exclusion criteria were applied to the rats for study: • Serum creatinine=0.8-2.0 mg/dL (sham controls=0.43±0.01 mg/dL; n=20) • Exclude: serum calcium≦8.5 mg/dL (sham controls=10.05±0.05 mg/dL; n=20) • Exclude: serum phosphorus>12 mg/dL (sham controls=7.09±0.12 mg/dL; n=20) • Exclude: iPTH<400 pg/mL (sham controls=430±33 pg/mL; n=20)
Measurement of PTH and serum mineral levels: Serum PTH was measured using a rat intact PTH ELISA kit (ALPCO/lmmutopics, Inc., Windham, N.H.). Serum calcium, phosphorus, creatinine and BUN concentrations were measured using an Abbott Aeroset® (Abbott, Abbott Park, Ill.). […]

[6] = target: T1, recombinant full-length human Vitamin D nuclear receptor (Homo sapiens, UniProt P11473); test: biochemical
T1 sequence (P11473 1-427): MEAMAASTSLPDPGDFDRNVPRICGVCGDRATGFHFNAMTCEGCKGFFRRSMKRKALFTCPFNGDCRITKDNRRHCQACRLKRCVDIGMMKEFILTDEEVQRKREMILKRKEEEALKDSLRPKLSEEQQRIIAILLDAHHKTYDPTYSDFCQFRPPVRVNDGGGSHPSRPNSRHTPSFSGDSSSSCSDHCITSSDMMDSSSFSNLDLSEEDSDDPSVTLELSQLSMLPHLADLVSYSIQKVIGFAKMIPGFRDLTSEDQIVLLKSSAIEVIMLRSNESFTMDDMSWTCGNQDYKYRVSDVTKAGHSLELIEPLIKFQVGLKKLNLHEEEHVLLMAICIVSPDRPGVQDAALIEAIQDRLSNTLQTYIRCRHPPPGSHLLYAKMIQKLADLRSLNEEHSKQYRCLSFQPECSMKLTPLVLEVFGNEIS
Procedure: In vitro binding of selected compounds according to the invention to VDR was assessed using the following procedure. […] Each test compound was then serially diluted in binding buffer to concentrations appropriate for the assay, as one skilled in the art can determine.
Final assay volume was 100 uL. The filled plate was incubated overnight at 4° C. with gentle shaking. After 18 hours of incubation, 20 uL of wheat germ agglutinin-coated yttrium silicate scintillation proximity assay (SPA) beads (commercially available from Amersham Biosciences, Piscataway, N.J.; Part # RPNQ0270) resuspended in binding buffer was added to each well (200 ug/well) and the plate was incubated at room temperature for 2 hours with gentle shaking.

Question: Which EC50 [1] does the source give for `C=C1[C@H](O)CC(=C/C=C2\CCC[C@]3(C)[C@@H]([C@H](C)COC(=O)C(C)(C)C)CC[C@@H]23)C[C@H]1O` [Example 1, (2S)-2-[(1R,3R,7E, 17β)-1,3-dihydroxy-2-methylene-9,10-secoestra-5,7-dien-17-yl]propyl pivalate] here?
Answer: 0.4 nM

Question: And the EC50 [2]?
Answer: 1.9 nM

Question: What about the IC50 [3] of the same compound?
Answer: 0.01 nM

Question: What about the EC50 [4] of the same compound?
Answer: 2.2 nM

Question: And the “effect on aortic calcification” value [5]?
Answer: did not have an effect

Question: What about the IC50 [6] of the same compound?
Answer: 496 nM
